Test results reported in ChEMBL document CHEMBL1795238, “Structure-brain exposure relationships in rat and human using a novel data set of unbound drug concentrations in brain interstitial and cerebrospinal fluids” (J Med Chem, 2009).

Tests used:
[1] = test system: Plasma; conditions: rat, iv, 4 h
[2] = test system: Brain; conditions: rat, in vivo, iv, 4 h
[3] = in vivo; conditions: Sprague-Dawley, rat, iv, 2 (umol/kg)/hr
[4] = in vivo; conditions: Sprague-Dawley, rat, iv, 2 (umol/kg)/hr; remark: listed apart in the source
[5] = in vivo; conditions: Sprague-Dawley, rat, iv, 2 (umol/kg)/hr; remark: listed apart in the source
[6] = in vitro; conditions: Sprague-Dawley, rat, plasma, iv, 2 (umol/kg)/hr
[7] = clinical; conditions: human, CSF and plasma

Row | Compound | Cp(f) [1] [nM] | Vdu [2] [mL] | Kp at 4 h ([3]; brain) | Kp uu at 4 h ([4]; brain) | Kp uu at 4 h ([5]; csf) | fraction unbound at 4 h [6] | Kp uu [7] | Kp at 4 h ([3]; brain and plasma) | Kp uu at 4 h ([4]; brain and plasma) | Kp uu at 4 h ([5]; CSF and plasma)
1 | COc1ccc2c(c1)c(CC(=O)O)c(C)n2C(=O)c1ccc(Cl)cc1 [INDOMETHACIN] | 200 | 14 | 0.01 | 0.11 | 0.17 | 0.01 | 0.27 |  |  | 
2 | CN1CC[C@]23c4c5ccc(O)c4O[C@H]2C(=O)CC[C@@]3(O)[C@H]1C5 [OXYMORPHONE] | 240 | 4 |  |  |  | 0.73 |  | 2.29 | 0.79 | 0.91
3 | CN(C)CCC=C1c2ccccc2CCc2ccccc21 [AMITRIPTYLINE] | 22 | 310 |  |  |  | 0.09 | 0.18 | 20.1 | 0.73 | 0.17
4 | CC(C)NCC(O)COc1cccc2[nH]ccc12 (stereo not drawn) [PINDOLOL] | 160 |  |  |  |  | 0.43 | 0.52 | 1.56 | 0.5 | 0.11
5 | COc1ccc2c3c1O[C@H]1C(=O)CC[C@@]4(O)[C@@H](C2)N(C)CC[C@]314 [OXYCODONE] | 330 |  |  |  |  | 0.87 |  |  |  | 
6 | O=C(O)c1cc(/N=N/c2ccc(S(=O)(=O)Nc3ccccn3)cc2)ccc1O [SULFASALAZINE] | 13 |  |  |  |  | 0.005 |  |  |  | 0.032
7 | CCC(C(N)=O)(C(N)=O)c1ccccc1 [PHENYLETHYLMALONAMIDE] | 4300 | 0.9 |  |  |  | 0.55 |  | 0.64 | 1.25 | 1.4
8 | CN(C)C(=O)C(CCN1CCC(O)(c2ccc(Cl)cc2)CC1)(c1ccccc1)c1ccccc1 [LOPERAMIDE] | 54 | 370 |  |  |  | 0.06 |  | 0.15 | 0.007 | 0.037
9 | CO[C@H]1/C=C/O[C@@]2(C)Oc3c(C)c(O)c4c(O)c(c(/C=N/N5CCN(C)CC5)c(O)c4c3C2=O)NC(=O)/C(C)=C\C=C\[C@H](C)[C@H](O)[C@@H](C)[C@@H](O)[C@@H](C)[C@H](OC(C)=O)[C@@H]1C [RIFAMPIN] | 830 |  |  |  |  | 0.12 |  |  |  | 
10 | C=CCOc1ccccc1OCC(O)CNC(C)C (stereo not drawn) [OXPRENOLOL] | 210 | 11.8 | 1.06 | 0.2 | 0.1 | 0.45 |  |  |  | 
11 | CC(C)(C)NC(=O)[C@@H]1C[C@@H]2CCCC[C@@H]2CN1C[C@@H](O)[C@H](Cc1ccccc1)NC(=O)[C@H](CC(N)=O)NC(=O)c1ccc2ccccc2n1 | 3 | 208 | 0.08 | 0.055 |  | 0.007 | 0.096 |  |  | 
12 | COc1ccc(CCN(C)CCCC(C#N)(c2ccc(OC)c(OC)c2)C(C)C)cc1OC (stereo not drawn) | 75 |  |  |  |  |  |  |  |  | 
13 | Cc1cn([C@H]2C[C@H](N=[N+]=[N-])[C@@H](CO)O2)c(=O)[nH]c1=O [ZIDOVUDINE] | 1200 |  |  |  |  | 0.64 |  |  |  | 
14 | O=C1CN(/N=C/c2ccc([N+](=O)[O-])o2)C(=O)N1 [NITROFURANTOIN] | 710 | 1.6 | 0.008 | 0.011 | 0.0099 | 0.48 |  |  |  | 
15 | COCCc1ccc(OCC(O)CNC(C)C)cc1 (stereo not drawn) [METOPROLOL] | 750 |  |  |  |  | 0.9 |  |  |  | 
16 | CCCC(C)C1(CC)C(=O)NC(=S)NC1=O (stereo not drawn) [THIOPENTAL] | 550 |  |  |  |  | 0.19 |  |  |  | 
17 | CC(C)(C)NCC(O)COc1cccc2c1CC(O)C(O)C2 (stereo not drawn) [NADOLOL] | 780 |  |  |  |  | 0.86 |  |  |  | 
18 | C=CCc1ccccc1OCC(O)CNC(C)C (stereo not drawn) [ALPRENOLOL] | 280 | 50 | 8.27 | 0.38 | 0.33 | 0.44 |  |  |  | 
